In patent publication US9156790B2, “Anticancer P21-activated kinase inhibitors” (Ohio State Innovation Foundation, priority 2013, dated 2015):
pIC50: −log10 of the molar value. Entries after “also recorded” stand apart in the source; their conditions may differ.

Tests used:
Ret = Ret (Homo sapiens, UniProt P07949); assay: Kinase profiling panel: Ret; assay type: biochemical; conditions: 5 μM compound; average of triplicate
Description: (§1) To further probe the selectivity of the compounds 4 and 15, they were subjected for kinase profiling service for screening against a panel of other kinases selected based on the kinase tree at 5 μM concentration, at or above the IC50 for the two compounds versus PAK in both in vitro and cell-based assays. […] PAK1 was not available for testing using this system thus it was not possible to compare directly in this assay system.

p70S6K = p70S6K (Homo sapiens, UniProt P23443); assay: Kinase profiling panel: p70S6K; assay type: biochemical; conditions: 5 μM compound; for % activity vs. DMSO, p70S6K: average of triplicate
Description: as §1

PAK2 = PAK2 (Homo sapiens, UniProt Q13177); assay: Kinase profiling panel: PAK2; assay type: biochemical; conditions: 5 μM compound; average of triplicate
Description: as §1

JAK2 = JAK2 (Homo sapiens, UniProt O60674); assay: Kinase profiling panel: JAK2; assay type: biochemical; conditions: 5 μM compound; average of triplicate
Description: as §1

C-RAF = C-RAF (Homo sapiens, UniProt P04049); assay: Kinase profiling panel: C-RAF; assay type: biochemical; conditions: 5 μM compound; average of triplicate
Description: as §1

FTC133 cells = assay: Boyden chamber migration assay, FTC133; assay type: cell-based, Human; conditions: 2.5 μM or 5.0 μM, 12 hours
Description: Cells were grown in media containing 10% FBS. After 24 hours, the medium was aspirated, and media containing 1% FBS was added for 24 hours. The cells were trypsinized for 2 to 5 minutes, washed, and resuspended in media containing 1% FBS. The cell concentration was calculated by hemocytometer. Four hundred μl 1% FBS medium was added into 24-well plates, and a Boyden chamber (8 μm pore) was inserted into each well. Cells were added to each insert, and were allowed to attach in an incubator at 37° C. at 5% CO2 for 2 hours. The cells were then exposed to various concentrations of drugs or control diluent for 3 hours. The inserts were switched to a new well containing media containing 10% FBS, and the chamber was incubated for 12 or 24 hours depending on the migration rate of the cell line. The cells on and under the Boyden chamber membrane were fixed with 3.7% formaldehyde containing 0.05% crystal violet for 15 min after washing cells with PBS. The chambers were washed with distilled water. […] The Q-tips containing the scraped cells and the Boyden chamber containing the non-migrated cells were separately incubated in 80% methanol, shaken at 500 g for 30 minutes, and the extracted dye was measured at 570 nm. Migration was quantified as the ratio of the migrated cells over the total cells (non-migrated plus […]). […]

Recombinant active PAK 1 = biological target: T1, Recombinant active PAK 1 (Homo sapiens, UniProt Q13153); assay: In vitro PAK1 kinase assay (MBP substrate, 32P-ATP); assay type: biochemical; conditions: for Inhibition of PAK1 kinase activity in initial screen: 7.5 μM inhibitor, 2.5 μM ATP, myelin basic protein substrate (FIG. 2A); for ATP competition for PAK1: ATP 5-40 μM, Lineweaver-Burk analysis (FIG. 2C); for Relative PAK1 inhibitory potency (comparison in words) / pIC50: in vitro kinase assay; for Relative PAK1 inhibitory potency (comparison in words): comparison between compounds / with OSU-03012; for pIC50: read-out: IC50 versus PAK, in vitro (bound implied by chosen test concentration)
T1 construct: purchased Calbiochem
Description: Recombinant active PAK 1 (Calbiochem) was incubated with selected derivatives or 0.1% DMSO in the presence or absence of MBP (Sigma) in a 1× kinase buffer (Cell Signaling). The addition of [γ-32P]-ATP (2.5 μCi/reaction) (Perkin Elmer) started the reaction, which was incubated at 30° C. for 30 minutes. The reaction was terminated by the addition of EDTA. Results were obtained after visualization of ^32P-labeled MBP after separation on 12% polyacrylamide gels and autoradiography. For the Lineweaver-Burk plot analysis, the ratio of radioactive ATP to nonradioactive ATP was not altered. The PAK1 kinase activities are the means of three independent experiments quantified using P81 phosphocellulose paper by a scintillation counter after three washes with 0.75% phosphoric acid.
Screening of OSU-03012 Derivatives to Identify PAK1 Inhibitors. The 17 derivatives along with OSU-03012, each at 7.5 μM, were screened for their ability to inhibit PAK1 activity by in vitro PAK1 kinase assay. The dose was chosen (above the IC50 of OSU-03012) to allow OSU-03012 to serve as a robust positive control. The PAK1 kinase assay was performed using recombinant active PAK1 with myelin basic protein as substrate in the presence of 2.5 μM ATP and 7.5 μM of respective inhibitors.
To further investigate these six compounds, dose-response studies on PAK1 activity were performed by using PAK1 kinase assay. […] We next questioned whether compounds 4 or 15 inhibited PAK1 in an ATP competitive manner as their parent compound OSU-03012.

LIMK1 = LIMK1 (Homo sapiens, UniProt P53667); assay: Kinase profiling panel: LIMK1; assay type: biochemical; conditions: 5 μM compound; average of triplicate
Description: as §1

PAK3 = PAK3 (Homo sapiens, UniProt O75914); assay: Kinase profiling panel: PAK3; assay type: biochemical; conditions: 5 μM compound; average of triplicate
Description: as §1

p70S6K, sequence (P23443 whole entry): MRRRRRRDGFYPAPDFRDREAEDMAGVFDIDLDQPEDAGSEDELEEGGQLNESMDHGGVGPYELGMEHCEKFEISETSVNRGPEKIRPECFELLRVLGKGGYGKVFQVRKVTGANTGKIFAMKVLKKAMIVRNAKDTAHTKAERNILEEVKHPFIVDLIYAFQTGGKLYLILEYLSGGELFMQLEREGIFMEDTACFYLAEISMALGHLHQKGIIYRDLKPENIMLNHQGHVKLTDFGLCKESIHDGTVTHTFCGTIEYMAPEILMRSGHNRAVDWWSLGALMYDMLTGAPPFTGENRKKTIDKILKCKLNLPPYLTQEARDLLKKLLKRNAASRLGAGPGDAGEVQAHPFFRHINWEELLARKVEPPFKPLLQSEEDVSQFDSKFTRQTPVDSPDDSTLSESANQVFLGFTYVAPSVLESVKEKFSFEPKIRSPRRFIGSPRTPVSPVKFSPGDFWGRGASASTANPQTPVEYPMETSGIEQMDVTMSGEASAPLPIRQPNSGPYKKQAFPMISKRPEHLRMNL
T1 sequence (Q13153 whole entry): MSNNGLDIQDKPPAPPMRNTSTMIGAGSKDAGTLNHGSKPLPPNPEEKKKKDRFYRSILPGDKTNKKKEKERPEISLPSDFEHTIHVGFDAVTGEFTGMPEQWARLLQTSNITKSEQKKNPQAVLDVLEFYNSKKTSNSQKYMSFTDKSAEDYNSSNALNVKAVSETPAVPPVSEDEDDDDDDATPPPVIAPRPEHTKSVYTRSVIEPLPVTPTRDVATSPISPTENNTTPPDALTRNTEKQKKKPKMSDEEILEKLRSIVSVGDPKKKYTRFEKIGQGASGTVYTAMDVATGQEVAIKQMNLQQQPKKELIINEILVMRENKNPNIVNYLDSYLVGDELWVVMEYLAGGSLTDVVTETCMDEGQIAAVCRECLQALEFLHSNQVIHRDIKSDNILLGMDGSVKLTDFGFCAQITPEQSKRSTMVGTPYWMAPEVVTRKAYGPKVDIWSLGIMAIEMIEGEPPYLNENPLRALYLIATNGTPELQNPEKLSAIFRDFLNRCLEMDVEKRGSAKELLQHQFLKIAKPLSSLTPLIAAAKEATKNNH
PAK2, sequence (Q13177 whole entry, species assumed): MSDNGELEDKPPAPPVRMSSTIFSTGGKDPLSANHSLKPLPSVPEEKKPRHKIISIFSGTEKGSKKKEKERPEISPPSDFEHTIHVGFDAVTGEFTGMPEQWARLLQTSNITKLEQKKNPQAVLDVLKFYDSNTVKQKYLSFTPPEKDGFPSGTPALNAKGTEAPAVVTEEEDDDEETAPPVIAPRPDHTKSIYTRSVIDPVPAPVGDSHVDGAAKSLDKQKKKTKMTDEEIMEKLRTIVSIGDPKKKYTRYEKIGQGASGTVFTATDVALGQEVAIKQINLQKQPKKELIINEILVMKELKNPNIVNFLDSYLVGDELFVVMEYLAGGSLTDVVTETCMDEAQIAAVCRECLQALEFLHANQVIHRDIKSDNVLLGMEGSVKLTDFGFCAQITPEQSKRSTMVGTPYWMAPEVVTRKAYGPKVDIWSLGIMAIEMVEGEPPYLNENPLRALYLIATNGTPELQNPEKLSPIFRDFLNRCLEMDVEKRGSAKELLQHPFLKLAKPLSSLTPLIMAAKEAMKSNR
PAK3, sequence (O75914 whole entry, species assumed): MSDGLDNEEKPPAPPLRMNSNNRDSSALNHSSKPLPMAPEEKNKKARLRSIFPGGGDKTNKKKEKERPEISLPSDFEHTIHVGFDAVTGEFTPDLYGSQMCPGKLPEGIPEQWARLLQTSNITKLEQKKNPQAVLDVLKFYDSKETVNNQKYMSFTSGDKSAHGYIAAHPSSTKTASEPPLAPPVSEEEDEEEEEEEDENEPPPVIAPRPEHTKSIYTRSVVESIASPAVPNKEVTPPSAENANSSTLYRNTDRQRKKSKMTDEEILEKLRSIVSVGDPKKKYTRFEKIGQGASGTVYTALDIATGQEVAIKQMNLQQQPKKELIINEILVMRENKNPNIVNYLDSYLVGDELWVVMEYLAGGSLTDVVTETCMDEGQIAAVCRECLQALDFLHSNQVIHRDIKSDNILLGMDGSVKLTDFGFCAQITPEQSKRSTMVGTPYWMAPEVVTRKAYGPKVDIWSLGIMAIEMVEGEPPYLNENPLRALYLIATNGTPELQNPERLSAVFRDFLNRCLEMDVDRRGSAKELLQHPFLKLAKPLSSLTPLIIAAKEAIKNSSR
Ret, sequence (P07949 29-1114, species assumed): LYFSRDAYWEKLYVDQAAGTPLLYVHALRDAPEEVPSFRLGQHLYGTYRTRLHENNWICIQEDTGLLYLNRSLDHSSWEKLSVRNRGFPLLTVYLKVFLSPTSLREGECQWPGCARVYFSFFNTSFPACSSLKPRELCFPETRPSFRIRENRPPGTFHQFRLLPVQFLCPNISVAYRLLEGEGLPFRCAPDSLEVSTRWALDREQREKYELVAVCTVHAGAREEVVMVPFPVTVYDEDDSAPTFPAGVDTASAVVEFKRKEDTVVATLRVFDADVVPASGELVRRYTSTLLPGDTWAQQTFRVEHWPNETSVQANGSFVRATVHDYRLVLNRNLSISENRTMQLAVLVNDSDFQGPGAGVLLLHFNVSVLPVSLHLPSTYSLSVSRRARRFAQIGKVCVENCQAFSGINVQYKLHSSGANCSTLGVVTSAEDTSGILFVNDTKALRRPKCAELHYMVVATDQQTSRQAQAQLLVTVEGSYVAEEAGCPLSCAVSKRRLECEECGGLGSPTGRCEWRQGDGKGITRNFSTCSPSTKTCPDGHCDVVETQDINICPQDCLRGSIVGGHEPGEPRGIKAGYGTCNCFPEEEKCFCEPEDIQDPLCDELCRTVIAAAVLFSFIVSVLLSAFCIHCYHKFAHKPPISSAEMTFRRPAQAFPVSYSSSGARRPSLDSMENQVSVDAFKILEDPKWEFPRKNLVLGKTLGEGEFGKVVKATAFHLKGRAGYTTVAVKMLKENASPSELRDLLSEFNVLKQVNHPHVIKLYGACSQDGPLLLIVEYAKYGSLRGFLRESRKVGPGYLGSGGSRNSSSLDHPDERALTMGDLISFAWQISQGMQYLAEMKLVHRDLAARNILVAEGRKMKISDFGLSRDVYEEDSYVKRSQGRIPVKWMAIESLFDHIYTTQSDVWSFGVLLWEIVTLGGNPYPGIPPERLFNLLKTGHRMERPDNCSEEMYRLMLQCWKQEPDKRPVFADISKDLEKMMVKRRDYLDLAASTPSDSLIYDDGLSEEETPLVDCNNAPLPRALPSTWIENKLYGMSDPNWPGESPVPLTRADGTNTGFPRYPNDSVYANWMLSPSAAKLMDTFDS
JAK2, sequence (O60674 whole entry, species assumed): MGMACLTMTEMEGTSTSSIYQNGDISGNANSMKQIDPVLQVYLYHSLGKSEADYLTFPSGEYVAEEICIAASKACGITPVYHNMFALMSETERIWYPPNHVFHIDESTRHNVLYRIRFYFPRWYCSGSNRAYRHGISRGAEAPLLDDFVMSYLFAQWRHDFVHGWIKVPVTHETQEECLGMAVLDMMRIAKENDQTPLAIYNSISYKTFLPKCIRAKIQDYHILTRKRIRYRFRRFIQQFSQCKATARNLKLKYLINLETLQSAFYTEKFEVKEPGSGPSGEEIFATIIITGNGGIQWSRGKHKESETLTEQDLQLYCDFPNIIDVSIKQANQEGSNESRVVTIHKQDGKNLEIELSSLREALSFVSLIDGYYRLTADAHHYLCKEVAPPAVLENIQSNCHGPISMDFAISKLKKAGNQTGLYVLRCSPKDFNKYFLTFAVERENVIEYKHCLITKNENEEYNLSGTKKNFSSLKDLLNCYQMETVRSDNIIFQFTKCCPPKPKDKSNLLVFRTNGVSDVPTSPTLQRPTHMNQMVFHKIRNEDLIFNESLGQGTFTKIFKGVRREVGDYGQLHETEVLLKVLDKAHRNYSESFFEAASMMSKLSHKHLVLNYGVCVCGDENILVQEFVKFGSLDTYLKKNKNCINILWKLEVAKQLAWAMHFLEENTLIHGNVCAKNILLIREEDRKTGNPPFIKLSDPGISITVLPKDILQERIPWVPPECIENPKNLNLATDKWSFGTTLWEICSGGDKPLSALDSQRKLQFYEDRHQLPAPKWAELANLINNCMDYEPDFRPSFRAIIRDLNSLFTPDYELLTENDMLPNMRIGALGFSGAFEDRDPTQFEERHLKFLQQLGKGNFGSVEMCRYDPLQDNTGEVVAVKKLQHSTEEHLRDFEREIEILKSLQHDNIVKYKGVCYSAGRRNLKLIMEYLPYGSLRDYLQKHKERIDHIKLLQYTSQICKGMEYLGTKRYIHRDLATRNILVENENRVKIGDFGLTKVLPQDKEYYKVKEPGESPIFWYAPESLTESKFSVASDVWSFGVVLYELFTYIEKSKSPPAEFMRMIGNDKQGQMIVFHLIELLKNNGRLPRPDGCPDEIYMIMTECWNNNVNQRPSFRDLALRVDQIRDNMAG
LIMK1, sequence (P53667 whole entry, species assumed): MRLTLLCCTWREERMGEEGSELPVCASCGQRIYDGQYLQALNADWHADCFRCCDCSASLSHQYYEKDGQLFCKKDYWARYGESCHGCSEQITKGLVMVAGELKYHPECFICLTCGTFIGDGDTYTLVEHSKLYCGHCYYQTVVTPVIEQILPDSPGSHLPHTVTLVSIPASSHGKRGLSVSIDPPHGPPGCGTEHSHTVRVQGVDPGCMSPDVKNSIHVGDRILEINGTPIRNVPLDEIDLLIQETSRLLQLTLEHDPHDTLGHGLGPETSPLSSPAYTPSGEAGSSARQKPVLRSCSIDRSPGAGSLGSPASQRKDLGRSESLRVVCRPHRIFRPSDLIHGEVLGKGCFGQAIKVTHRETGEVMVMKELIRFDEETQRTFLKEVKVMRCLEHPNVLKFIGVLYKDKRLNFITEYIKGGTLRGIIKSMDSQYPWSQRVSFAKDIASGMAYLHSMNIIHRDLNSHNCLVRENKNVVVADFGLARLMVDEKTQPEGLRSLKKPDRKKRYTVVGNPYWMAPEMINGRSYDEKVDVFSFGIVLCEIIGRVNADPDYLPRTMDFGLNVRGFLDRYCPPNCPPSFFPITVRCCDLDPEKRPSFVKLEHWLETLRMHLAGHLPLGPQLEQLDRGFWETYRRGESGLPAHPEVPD

Row | Compound | % activity vs. DMSO, Ret (Ret) [%] | inhibition at 5 µM (p70S6K) [%] | % activity vs. DMSO, p70S6K (p70S6K) [%] | % activity vs. DMSO, PAK2 (PAK2) [%] | % activity vs. DMSO, JAK2 (JAK2) [%] | % activity vs. DMSO, C-RAF (C-RAF) [%] | Migration of FTC133 cells (FTC133 cells) | Inhibition of PAK1 kinase activity in initial screen (Recombinant active PAK 1) | ATP competition for PAK1 (Recombinant active PAK 1) | Relative PAK1 inhibitory potency (comparison in words) (Recombinant active PAK 1) | pIC50 (Recombinant active PAK 1) | % activity vs. DMSO, LIMK1 (LIMK1) [%] | % activity vs. DMSO, PAK3 (PAK3) [%]
1 | NCCC(=O)Nc1ccc(-n2nc(C(F)(F)F)cc2-c2ccc3ccc4ccccc4c3c2)cc1 [Compound 4, 3-amino-N-(4-(5-(phenanthren-3-yl)-3-(trifluoromethyl)-1H-pyrazol-1-yl)phenyl)-propanamide] | 97 | > 50 | 28 | 70 | 152 | 104 | not inhibited; also recorded: neither compound significantly inhibited migration | inhibited PAK1 kinase activity | competed with ATP binding to PAK1 | comparable PAK1 inhibitory activity to OSU-03012; also recorded: more potent than the other compounds | ≥ 5.30 | 130 | 211
2 | CC(C)NC(=O)c1cc(-c2ccc3ccc4ccccc4c3c2)n(-c2ccc(NC(=O)CN)cc2)n1 [Compound 15, 1-(4-(2-Aminoacetamido)phenyl)-N-isopropyl-5-(phenanthren-3-yl)-1H-pyrazole-3-carboxamide] | 76 | > 50 | 38 | 81 | 139 | 108 | not inhibited; also recorded: neither compound significantly inhibited migration | inhibited PAK1 kinase activity | competed with ATP binding to PAK1 | relative enhancement in activity; also recorded: comparable PAK1 inhibitory activity to OSU-03012; also recorded: more potent than the other compounds | ≥ 5.30 | 117 | 99
